# Measured values: the supplement of paper PMC10307832
# Key:
# Experiment in all cases: relative viability (nuclei count vs DMSO), 5 days (fraction); higher = more cells survive
# [1] = compound: CN[C@@H]1C[C@H]2O[C@@](C)([C@@H]1OC)n1c3ccccc3c3c4c(c5c6ccccc6n2c5c31)C(=O)NC4 [Staurosporine] + O=C(CCCCCCC(=O)Nc1ccccc1)NO [Vorinostat] (partner 1 µM)
# How it was run: (§1)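 Dosing by pin tool came one day after lung cancer cell lines were seeded in 1536-well plates, using either one drug or a fixed anchor-drug dose plus five library-drug doses (not always all listed) in √10 steps. After 5 days, nuclei were counted on 4× images. Relative viability is treated-well nuclei count divided by vehicle-well nuclei count, and values are medians of duplicate plates.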
# Sulindac + Vorinostat = compound: CC1=C(CC(=O)O)c2cc(F)ccc2/C1=C\c1ccc([S+](C)[O-])cc1 [Sulindac] + O=C(CCCCCCC(=O)Nc1ccccc1)NO [Vorinostat] (partner 1 µM)
# How it was run: as §1
# Sulindac + Olaparib = compound: CC1=C(CC(=O)O)c2cc(F)ccc2/C1=C\c1ccc([S+](C)[O-])cc1 [Sulindac] + O=C(c1cc(Cc2n[nH]c(=O)c3ccccc23)ccc1F)N1CCN(C(=O)C2CC2)CC1 [Olaparib] (partner 8 µM)
# How it was run: as §1
# Sulindac + AZD7762 = compound: CC1=C(CC(=O)O)c2cc(F)ccc2/C1=C\c1ccc([S+](C)[O-])cc1 [Sulindac] + NC(=O)Nc1cc(-c2cccc(F)c2)sc1C(=O)N[C@H]1CCCNC1 [AZD7762] (partner 0.2 µM)
# How it was run: as §1
cell line,measurement,setting,value
PC-14,relative viability,[1]; first compound 0.005 µM,0.267
same,relative viability,[1]; first compound 0.01581 µM,0.116
same,relative viability,[1]; first compound 0.05 µM,0.0757
same,relative viability,[1]; first compound 0.1581 µM,0.047
same,relative viability,[1]; first compound 0.5 µM,0.0287
same,relative viability,Sulindac + Vorinostat; first compound 0.08 µM,0.873
same,relative viability,Sulindac + Vorinostat; first compound 0.253 µM,0.9
same,relative viability,Sulindac + Vorinostat; first compound 0.8 µM,0.629
same,relative viability,Sulindac + Vorinostat; first compound 2.53 µM,0.645
same,relative viability,Sulindac + Vorinostat; first compound 8 µM,0.855
same,relative viability,Sulindac + Olaparib; first compound 0.08 µM,0.271
same,relative viability,Sulindac + Olaparib; first compound 0.253 µM,0.321
same,relative viability,Sulindac + Olaparib; first compound 0.8 µM,0.272
same,relative viability,Sulindac + Olaparib; first compound 2.53 µM,0.209
same,relative viability,Sulindac + Olaparib; first compound 8 µM,0.272
same,relative viability,Sulindac + AZD7762; first compound 0.08 µM,0.377
same,relative viability,Sulindac + AZD7762; first compound 0.253 µM,0.315
same,relative viability,Sulindac + AZD7762; first compound 0.8 µM,0.35
same,relative viability,Sulindac + AZD7762; first compound 2.53 µM,0.284
same,relative viability,Sulindac + AZD7762; first compound 8 µM,0.364
HARA,relative viability,[1]; first compound 0.005 µM,0.511
same,relative viability,[1]; first compound 0.01581 µM,0.114
same,relative viability,[1]; first compound 0.05 µM,0.307
same,relative viability,[1]; first compound 0.1581 µM,0.302
same,relative viability,[1]; first compound 0.5 µM,0.195
same,relative viability,Sulindac + Vorinostat; first compound 0.08 µM,0.474
same,relative viability,Sulindac + Vorinostat; first compound 0.253 µM,0.675
same,relative viability,Sulindac + Vorinostat; first compound 0.8 µM,0.425
same,relative viability,Sulindac + Vorinostat; first compound 2.53 µM,0.512
same,relative viability,Sulindac + Vorinostat; first compound 8 µM,0.461
same,relative viability,Sulindac + Olaparib; first compound 0.08 µM,0.737
same,relative viability,Sulindac + Olaparib; first compound 0.253 µM,0.935
same,relative viability,Sulindac + Olaparib; first compound 0.8 µM,1
same,relative viability,Sulindac + Olaparib; first compound 2.53 µM,0.731
same,relative viability,Sulindac + Olaparib; first compound 8 µM,0.955
same,relative viability,Sulindac + AZD7762; first compound 0.08 µM,0.339
same,relative viability,Sulindac + AZD7762; first compound 0.253 µM,0.392
same,relative viability,Sulindac + AZD7762; first compound 0.8 µM,0.288
same,relative viability,Sulindac + AZD7762; first compound 2.53 µM,0.294
same,relative viability,Sulindac + AZD7762; first compound 8 µM,0.307
NCI-H23,relative viability,[1]; first compound 0.005 µM,0.506
same,relative viability,[1]; first compound 0.01581 µM,0.0921
same,relative viability,[1]; first compound 0.05 µM,0.0962
same,relative viability,[1]; first compound 0.1581 µM,0.143
same,relative viability,[1]; first compound 0.5 µM,0.101
same,relative viability,Sulindac + Vorinostat; first compound 0.08 µM,0.577
same,relative viability,Sulindac + Vorinostat; first compound 0.253 µM,0.684
same,relative viability,Sulindac + Vorinostat; first compound 0.8 µM,0.607
same,relative viability,Sulindac + Vorinostat; first compound 2.53 µM,0.38
same,relative viability,Sulindac + Vorinostat; first compound 8 µM,0.702
same,relative viability,Sulindac + Olaparib; first compound 0.08 µM,0.32
same,relative viability,Sulindac + Olaparib; first compound 0.253 µM,0.319
same,relative viability,Sulindac + Olaparib; first compound 0.8 µM,0.367
same,relative viability,Sulindac + Olaparib; first compound 2.53 µM,0.258
same,relative viability,Sulindac + Olaparib; first compound 8 µM,0.282
same,relative viability,Sulindac + AZD7762; first compound 0.08 µM,0.294
same,relative viability,Sulindac + AZD7762; first compound 0.253 µM,0.22
same,relative viability,Sulindac + AZD7762; first compound 0.8 µM,0.273
same,relative viability,Sulindac + AZD7762; first compound 2.53 µM,0.256
same,relative viability,Sulindac + AZD7762; first compound 8 µM,0.232
LCLC-97TM1,relative viability,[1]; first compound 0.005 µM,0.334
same,relative viability,[1]; first compound 0.01581 µM,0.0752
same,relative viability,[1]; first compound 0.05 µM,0.205
same,relative viability,[1]; first compound 0.1581 µM,0.113
same,relative viability,[1]; first compound 0.5 µM,0.0631
same,relative viability,Sulindac + Vorinostat; first compound 0.08 µM,1.01
same,relative viability,Sulindac + Vorinostat; first compound 0.253 µM,0.86
same,relative viability,Sulindac + Vorinostat; first compound 0.8 µM,0.453
same,relative viability,Sulindac + Vorinostat; first compound 2.53 µM,0.729
same,relative viability,Sulindac + Vorinostat; first compound 8 µM,0.94
same,relative viability,Sulindac + Olaparib; first compound 0.08 µM,0.481
same,relative viability,Sulindac + Olaparib; first compound 0.253 µM,0.531
same,relative viability,Sulindac + Olaparib; first compound 0.8 µM,0.473
same,relative viability,Sulindac + Olaparib; first compound 2.53 µM,0.308
same,relative viability,Sulindac + Olaparib; first compound 8 µM,0.606
same,relative viability,Sulindac + AZD7762; first compound 0.08 µM,0.274
same,relative viability,Sulindac + AZD7762; first compound 0.253 µM,0.377
same,relative viability,Sulindac + AZD7762; first compound 0.8 µM,0.171
same,relative viability,Sulindac + AZD7762; first compound 8 µM,0.232
LC-2-ad,relative viability,[1]; first compound 0.005 µM,0.635
same,relative viability,[1]; first compound 0.01581 µM,0.158
same,relative viability,[1]; first compound 0.05 µM,0.217
same,relative viability,[1]; first compound 0.1581 µM,0.13
same,relative viability,[1]; first compound 0.5 µM,0.0772
same,relative viability,Sulindac + Vorinostat; first compound 0.08 µM,0.833
same,relative viability,Sulindac + Vorinostat; first compound 0.253 µM,0.843
same,relative viability,Sulindac + Vorinostat; first compound 0.8 µM,0.669
same,relative viability,Sulindac + Vorinostat; first compound 2.53 µM,0.693
same,relative viability,Sulindac + Vorinostat; first compound 8 µM,0.821
same,relative viability,Sulindac + Olaparib; first compound 0.08 µM,0.746
same,relative viability,Sulindac + Olaparib; first compound 0.253 µM,0.677
same,relative viability,Sulindac + Olaparib; first compound 0.8 µM,0.676
same,relative viability,Sulindac + Olaparib; first compound 2.53 µM,0.686
same,relative viability,Sulindac + Olaparib; first compound 8 µM,0.66
same,relative viability,Sulindac + AZD7762; first compound 0.08 µM,0.972
same,relative viability,Sulindac + AZD7762; first compound 0.253 µM,0.906
same,relative viability,Sulindac + AZD7762; first compound 0.8 µM,0.701
same,relative viability,Sulindac + AZD7762; first compound 2.53 µM,0.815
same,relative viability,Sulindac + AZD7762; first compound 8 µM,0.944
NCI-H1666,relative viability,[1]; first compound 0.005 µM,0.938
same,relative viability,[1]; first compound 0.01581 µM,0.824
same,relative viability,[1]; first compound 0.05 µM,0.801
same,relative viability,[1]; first compound 0.1581 µM,0.593
same,relative viability,[1]; first compound 0.5 µM,0.446
same,relative viability,Sulindac + Vorinostat; first compound 0.08 µM,0.981
same,relative viability,Sulindac + Vorinostat; first compound 0.253 µM,1.06
same,relative viability,Sulindac + Vorinostat; first compound 0.8 µM,0.867
same,relative viability,Sulindac + Vorinostat; first compound 2.53 µM,0.891
same,relative viability,Sulindac + Vorinostat; first compound 8 µM,1.1
same,relative viability,Sulindac + Olaparib; first compound 0.08 µM,0.705
same,relative viability,Sulindac + Olaparib; first compound 0.253 µM,0.741
same,relative viability,Sulindac + Olaparib; first compound 0.8 µM,0.674
same,relative viability,Sulindac + Olaparib; first compound 2.53 µM,0.734
same,relative viability,Sulindac + Olaparib; first compound 8 µM,0.774
same,relative viability,Sulindac + AZD7762; first compound 0.08 µM,0.869
same,relative viability,Sulindac + AZD7762; first compound 0.253 µM,0.878
same,relative viability,Sulindac + AZD7762; first compound 0.8 µM,0.776
same,relative viability,Sulindac + AZD7762; first compound 2.53 µM,0.847
same,relative viability,Sulindac + AZD7762; first compound 8 µM,0.945
EKVX,relative viability,[1]; first compound 0.005 µM,0.597
same,relative viability,[1]; first compound 0.01581 µM,0.236
same,relative viability,[1]; first compound 0.05 µM,0.19
same,relative viability,[1]; first compound 0.1581 µM,0.248
same,relative viability,[1]; first compound 0.5 µM,0.181
same,relative viability,Sulindac + Vorinostat; first compound 0.08 µM,0.636
same,relative viability,Sulindac + Vorinostat; first compound 0.253 µM,0.635
same,relative viability,Sulindac + Vorinostat; first compound 2.53 µM,0.652
same,relative viability,Sulindac + Vorinostat; first compound 8 µM,0.771
same,relative viability,Sulindac + Olaparib; first compound 0.08 µM,0.736
same,relative viability,Sulindac + Olaparib; first compound 0.253 µM,0.929
same,relative viability,Sulindac + Olaparib; first compound 0.8 µM,0.718
same,relative viability,Sulindac + Olaparib; first compound 2.53 µM,0.803
same,relative viability,Sulindac + Olaparib; first compound 8 µM,0.93
same,relative viability,Sulindac + AZD7762; first compound 0.08 µM,0.755
same,relative viability,Sulindac + AZD7762; first compound 0.253 µM,0.902
same,relative viability,Sulindac + AZD7762; first compound 0.8 µM,0.571
same,relative viability,Sulindac + AZD7762; first compound 2.53 µM,0.763
same,relative viability,Sulindac + AZD7762; first compound 8 µM,0.809
